According to PubChem BioAssay AID2005 (Sanford-Burnham Center for Chemical Genomics, 2009):
Activity calls are given as the source filed them.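 How the source made its calls: active means plate Z score at or below -3, or inhibition of at least 30% at 20 µM; inactive means the rest.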

Legend:
[1] = compounds lowering EGFP fluorescence in F442A cells, dose response, counter-screen for p/CIP destabilizer project (AID 2005); conditions: F442A EGFP cells, EGFP fluorescence, 16 h, stronger effect = higher value;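 further: cells express EGFP alone from a CMV promoter as a counter screen for p/CIP-EGFP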
[2] = tested on: F442A EGFP cells, EGFP fluorescence, 16 h; assay: as above

SMILES	inhibition ([1]; EGFP decrease, at 10 µM) [%]	IC50 [2]	inhibition ([1]; at 20 µM)
COc1ccc(NC(=O)/C(Cl)=C(/Cl)S(=O)Cc2ccc(Cl)cc2)cn1 (stereo not given)	-168	49.9 µM (inactive)	–
CCOC(=O)N=Nc1c2ccccc2c2nc3no[nH]c3nc12	-20.6	35.5 µM	–
O=C1C(Cl)=C(NCCN2CCCCC2)C(=O)c2ccccc21	16.1	20.4 µM	–
Cc1ccc(NC2=C/C(=N\S(=O)(=O)c3cccs3)c3ccccc3C2=O)c(C)c1	60	16 µM	–
Cc1oc2c(c1C(=O)NCc1cccnc1)C(=O)c1ccccc1C2=O	72	5.99 µM	–
CC1CCN(S(=O)(=O)c2ccc3c(c2)C(=NO)c2cc(S(=O)(=O)N4CCC(C)CC4)ccc2-3)CC1	68.9	7.46 µM	–
COc1ccc(CS(=O)/C(Cl)=C(/Cl)C(=O)Nc2ccc(OC)nc2)cc1 (stereo not given)	-232	48 µM (inactive)	–
Nc1ccc2c(c1)C(=O)C(=O)c1ccccc1-2	3.5	30.8 µM	–
CC(C)(C)c1cc[n+](C2=C([O-])c3ccccc3C(=O)/C2=N\S(=O)(=O)c2cccs2)cc1	-4.5	37.9 µM	–
O=C1C(Nc2ccc(O)cc2)=C/C(=N/S(=O)(=O)c2cccs2)c2ccccc21	66	5.18 µM	–
O=C1C(Nc2ccccc2)=C/C(=N/S(=O)(=O)c2cccs2)c2ccccc21	62.1	10.4 µM	–
Cc1ccccc1NC1=C/C(=N\S(=O)(=O)c2cccs2)c2ccccc2C1=O	66.7	13 µM	–
CS(=O)(=O)c1ccc(S(=O)CC(=O)OCc2ccccc2)c([N+](=O)[O-])c1 (stereo not given)	16	–	-0.6% (inactive)
CCOC(=O)CCc1c(C)c2ccc(OCC(=O)N(CC)CC)c(C)c2oc1=O	19.9	–	8.8% (inactive)
O=C(NCc1ccncc1)c1cc(C(=O)C2CCCCC2)c[nH]1	-25	–	31.5%
Cc1ccc(NC2CCCN(C(=O)c3ccccc3-c3ncc[nH]3)C2)cc1C (stereo not given)	-12.3	–	21.4% (inactive)
CCN(Cc1nc2ccccc2c(=O)[nH]1)Cc1nc2ccsc2c(=O)[nH]1	26.2	–	22.6% (inactive)
CCOC(=O)c1c(C)[nH]c2c1-c1ccccc1C(=O)C2=O	23.3	8.64 µM	–
Cc1ccccc1-n1ncc2c1CC(C)(C)CC2NC(=O)CCN1CCCCC1=O (stereo not given)	-9.2	–	12.3% (inactive)
CC(=O)Nc1ccc(S(=O)(=O)NCc2cn3ccsc3n2)cc1	8.3	–	1% (inactive)
CC(=O)c1ccc(OCc2cc(C(=O)NC3CCCCC3)no2)cc1	15.2	–	9.5% (inactive)
c1ccc(-c2cc(-c3nnco3)c3ccccc3n2)nc1	13.9	–	-6.2% (inactive)
Cc1onc(-c2ccccc2)c1C(=O)OCC(=O)Nc1cc(S(=O)(=O)N2CCOCC2)ccc1Cl	13.9	–	19.6% (inactive)
O=C(c1ccccc1F)N(Cc1cccnc1)Cc1cc2cc3c(cc2[nH]c1=O)OCCO3	4.2	–	-4.2% (inactive)
O=C(O)C(O)Cc1c[nH]c2ccccc12 (stereo not given)	23.8	–	19.1% (inactive)
Cc1nc2c(=O)n(C)c(=O)nc-2n(C)n1	54.2	–	34.4%
O=C(Cn1c(=O)[nH]c2ccccc2c1=O)N1CCN(c2cccc(Cl)c2)CC1	17.8	–	20.5% (inactive)
C(=N\NC1=Nc2cccc3cccc1c23)/c1ccccn1	10.2	–	12% (inactive)
C[C@H](NC(=O)C1CCC(CNC(=O)[C@@H]2CCCN2C(=O)OC(C)(C)C)CC1)C(=O)O (stereo not given in full)	26.7	–	20.8% (inactive)
CCC(=O)Nc1ccccc1Oc1ccccc1	12.2	–	19.7% (inactive)
